PMC6437697 (Journal of Medicinal Chemistry, 2019)

Experiments:
Format in all cases: binding
EGFR(E746-A750del) = biological target: T1, EGFR(E746-A750del) (Homo sapiens, UniProt P00533, DEL746-750); assay: KINOMEscan; conditions: read-out: % control activity remaining
T1 construct: purchased Eurofins DiscoverX KINOMEscan

YANK1 = biological target: T2, YANK1 (Homo sapiens, UniProt Q8WU08); assay: KINOMEscan; conditions: read-out: % control activity remaining
T2 construct: purchased Eurofins DiscoverX KINOMEscan
T2 sequence (Q8WU08 whole entry): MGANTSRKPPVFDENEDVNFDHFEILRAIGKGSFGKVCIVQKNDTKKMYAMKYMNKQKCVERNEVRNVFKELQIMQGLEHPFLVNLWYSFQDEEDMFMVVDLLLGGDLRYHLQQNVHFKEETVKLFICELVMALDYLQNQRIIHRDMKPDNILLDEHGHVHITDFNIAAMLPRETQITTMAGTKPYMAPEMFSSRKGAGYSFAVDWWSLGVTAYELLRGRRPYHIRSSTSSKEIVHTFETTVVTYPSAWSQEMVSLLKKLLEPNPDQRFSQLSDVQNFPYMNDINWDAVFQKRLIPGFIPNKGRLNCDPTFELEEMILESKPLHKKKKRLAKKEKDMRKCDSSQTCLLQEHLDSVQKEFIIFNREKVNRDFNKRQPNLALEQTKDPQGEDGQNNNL

MET(Y1235D) = biological target: T3, MET(Y1235D) (Homo sapiens, UniProt P08581, Y1235D); assay: KINOMEscan; conditions: read-out: % control activity remaining
T3 construct: purchased Eurofins DiscoverX KINOMEscan
T3 sequence (P08581 25-1390 Y1235D): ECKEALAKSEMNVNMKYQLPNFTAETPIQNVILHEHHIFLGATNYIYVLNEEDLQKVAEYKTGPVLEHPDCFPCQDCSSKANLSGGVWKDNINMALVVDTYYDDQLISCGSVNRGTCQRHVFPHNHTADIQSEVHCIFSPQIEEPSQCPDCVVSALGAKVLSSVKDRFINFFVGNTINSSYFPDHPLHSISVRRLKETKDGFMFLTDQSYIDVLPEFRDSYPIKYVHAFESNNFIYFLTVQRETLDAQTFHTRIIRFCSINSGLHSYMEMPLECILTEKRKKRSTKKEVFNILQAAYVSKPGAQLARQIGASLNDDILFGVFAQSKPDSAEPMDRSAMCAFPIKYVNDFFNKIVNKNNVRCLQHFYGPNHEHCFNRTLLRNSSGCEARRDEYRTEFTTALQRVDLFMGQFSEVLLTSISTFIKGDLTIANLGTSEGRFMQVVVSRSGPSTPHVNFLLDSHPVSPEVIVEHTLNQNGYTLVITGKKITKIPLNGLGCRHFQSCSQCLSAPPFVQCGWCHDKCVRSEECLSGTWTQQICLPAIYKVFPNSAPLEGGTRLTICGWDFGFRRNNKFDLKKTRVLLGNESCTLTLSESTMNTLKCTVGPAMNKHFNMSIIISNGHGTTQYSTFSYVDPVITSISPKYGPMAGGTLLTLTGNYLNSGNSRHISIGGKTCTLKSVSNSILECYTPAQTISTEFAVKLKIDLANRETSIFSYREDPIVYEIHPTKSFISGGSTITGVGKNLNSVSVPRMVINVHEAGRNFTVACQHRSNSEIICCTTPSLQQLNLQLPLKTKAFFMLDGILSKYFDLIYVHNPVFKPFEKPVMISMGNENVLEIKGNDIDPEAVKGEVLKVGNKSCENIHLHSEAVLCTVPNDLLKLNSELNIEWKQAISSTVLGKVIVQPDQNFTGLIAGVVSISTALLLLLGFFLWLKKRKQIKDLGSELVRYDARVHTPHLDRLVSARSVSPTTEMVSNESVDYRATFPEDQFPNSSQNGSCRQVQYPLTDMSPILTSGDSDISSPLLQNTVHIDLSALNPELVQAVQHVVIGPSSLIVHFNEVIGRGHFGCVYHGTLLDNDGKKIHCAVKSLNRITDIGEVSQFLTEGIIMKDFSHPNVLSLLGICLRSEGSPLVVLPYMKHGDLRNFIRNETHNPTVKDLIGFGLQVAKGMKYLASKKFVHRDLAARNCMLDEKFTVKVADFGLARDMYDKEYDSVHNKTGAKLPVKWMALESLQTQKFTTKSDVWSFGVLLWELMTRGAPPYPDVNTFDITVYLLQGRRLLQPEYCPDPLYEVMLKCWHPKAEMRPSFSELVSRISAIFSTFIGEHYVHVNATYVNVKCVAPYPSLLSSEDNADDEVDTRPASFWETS

GSK3B = biological target: T4, GSK3B (Homo sapiens, UniProt P49841); assay: KINOMEscan; conditions: read-out: % control activity remaining
T4 construct: purchased Eurofins DiscoverX KINOMEscan
T4 sequence (P49841 whole entry): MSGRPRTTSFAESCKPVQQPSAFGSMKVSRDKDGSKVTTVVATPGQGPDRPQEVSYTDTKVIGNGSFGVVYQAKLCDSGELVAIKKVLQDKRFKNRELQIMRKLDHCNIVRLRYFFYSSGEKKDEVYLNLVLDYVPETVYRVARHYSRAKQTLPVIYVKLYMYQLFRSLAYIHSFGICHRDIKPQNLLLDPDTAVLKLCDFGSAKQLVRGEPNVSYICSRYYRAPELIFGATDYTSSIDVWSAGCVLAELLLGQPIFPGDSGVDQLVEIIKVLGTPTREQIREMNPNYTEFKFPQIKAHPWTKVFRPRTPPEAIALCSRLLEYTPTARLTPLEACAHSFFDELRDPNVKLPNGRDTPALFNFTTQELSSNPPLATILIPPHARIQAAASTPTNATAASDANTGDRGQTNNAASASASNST

DCAMKL2 = biological target: T5, DCAMKL2 (Homo sapiens, UniProt Q8N568); assay: KINOMEscan; conditions: read-out: % control activity remaining
T5 construct: purchased Eurofins DiscoverX KINOMEscan
T5 sequence (Q8N568 1-766): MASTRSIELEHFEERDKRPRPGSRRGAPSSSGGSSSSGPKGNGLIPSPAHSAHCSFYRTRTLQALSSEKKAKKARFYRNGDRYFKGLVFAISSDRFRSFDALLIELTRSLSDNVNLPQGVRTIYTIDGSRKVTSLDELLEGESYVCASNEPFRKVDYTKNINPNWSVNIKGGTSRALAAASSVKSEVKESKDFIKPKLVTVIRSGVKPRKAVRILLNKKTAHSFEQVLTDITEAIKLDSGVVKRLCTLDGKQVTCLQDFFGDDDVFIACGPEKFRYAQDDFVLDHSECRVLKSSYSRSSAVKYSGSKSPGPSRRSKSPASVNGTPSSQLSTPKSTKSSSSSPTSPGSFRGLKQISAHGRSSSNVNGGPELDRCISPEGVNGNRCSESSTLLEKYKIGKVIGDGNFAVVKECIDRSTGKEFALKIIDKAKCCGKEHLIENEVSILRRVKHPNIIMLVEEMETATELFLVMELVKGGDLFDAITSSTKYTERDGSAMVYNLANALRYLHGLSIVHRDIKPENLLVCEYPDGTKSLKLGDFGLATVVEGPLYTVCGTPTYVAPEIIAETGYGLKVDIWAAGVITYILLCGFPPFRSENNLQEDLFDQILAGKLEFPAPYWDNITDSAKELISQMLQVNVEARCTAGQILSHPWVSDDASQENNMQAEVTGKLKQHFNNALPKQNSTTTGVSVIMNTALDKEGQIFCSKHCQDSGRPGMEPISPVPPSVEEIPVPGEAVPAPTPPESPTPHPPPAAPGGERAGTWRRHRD

NEK11 = biological target: T6, NEK11 (Homo sapiens, UniProt Q8NG66); assay: KINOMEscan; conditions: read-out: % control activity remaining
T6 construct: purchased Eurofins DiscoverX KINOMEscan
T6 sequence (Q8NG66 1-645): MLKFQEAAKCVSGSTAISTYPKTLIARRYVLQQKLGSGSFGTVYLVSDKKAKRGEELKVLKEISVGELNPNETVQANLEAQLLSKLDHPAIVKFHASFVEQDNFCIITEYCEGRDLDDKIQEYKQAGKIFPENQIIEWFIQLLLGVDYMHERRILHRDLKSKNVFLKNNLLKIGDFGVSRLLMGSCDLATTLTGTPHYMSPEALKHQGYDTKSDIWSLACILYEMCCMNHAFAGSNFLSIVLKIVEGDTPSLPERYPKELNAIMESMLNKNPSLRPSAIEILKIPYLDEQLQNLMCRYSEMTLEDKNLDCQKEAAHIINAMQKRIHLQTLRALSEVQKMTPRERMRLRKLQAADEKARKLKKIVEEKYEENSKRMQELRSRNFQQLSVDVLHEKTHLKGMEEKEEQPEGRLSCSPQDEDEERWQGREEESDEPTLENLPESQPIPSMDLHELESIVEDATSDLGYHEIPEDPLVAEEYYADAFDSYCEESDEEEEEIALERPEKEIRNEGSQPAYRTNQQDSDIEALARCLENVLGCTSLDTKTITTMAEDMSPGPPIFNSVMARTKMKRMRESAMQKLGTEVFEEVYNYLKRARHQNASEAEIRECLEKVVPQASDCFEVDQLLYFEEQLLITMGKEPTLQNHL

WEE1 = biological target: T7, WEE1 (Homo sapiens, UniProt P30291); assay: KINOMEscan; conditions: read-out: % control activity remaining
T7 construct: purchased Eurofins DiscoverX KINOMEscan
T7 sequence (P30291 whole entry): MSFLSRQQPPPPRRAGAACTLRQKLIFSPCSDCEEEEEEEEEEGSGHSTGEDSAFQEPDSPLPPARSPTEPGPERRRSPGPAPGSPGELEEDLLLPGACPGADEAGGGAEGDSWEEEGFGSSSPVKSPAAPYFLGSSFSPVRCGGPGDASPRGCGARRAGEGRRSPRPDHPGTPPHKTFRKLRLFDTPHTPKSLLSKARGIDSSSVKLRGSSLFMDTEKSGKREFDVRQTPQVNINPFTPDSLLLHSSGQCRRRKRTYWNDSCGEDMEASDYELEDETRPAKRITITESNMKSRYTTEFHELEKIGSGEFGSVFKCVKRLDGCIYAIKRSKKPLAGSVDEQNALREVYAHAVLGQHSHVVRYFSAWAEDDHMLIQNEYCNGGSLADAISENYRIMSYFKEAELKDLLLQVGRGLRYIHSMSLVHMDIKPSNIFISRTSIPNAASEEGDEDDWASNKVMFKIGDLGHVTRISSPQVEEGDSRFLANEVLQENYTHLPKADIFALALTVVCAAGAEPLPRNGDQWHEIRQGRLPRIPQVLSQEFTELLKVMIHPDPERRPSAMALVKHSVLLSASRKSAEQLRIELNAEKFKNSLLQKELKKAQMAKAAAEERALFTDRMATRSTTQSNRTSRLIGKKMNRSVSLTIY

NDR2 = biological target: T8, NDR2 (Homo sapiens, UniProt Q9Y2H1); assay: KINOMEscan; conditions: read-out: % control activity remaining
T8 construct: purchased Eurofins DiscoverX KINOMEscan
T8 sequence (Q9Y2H1 whole entry): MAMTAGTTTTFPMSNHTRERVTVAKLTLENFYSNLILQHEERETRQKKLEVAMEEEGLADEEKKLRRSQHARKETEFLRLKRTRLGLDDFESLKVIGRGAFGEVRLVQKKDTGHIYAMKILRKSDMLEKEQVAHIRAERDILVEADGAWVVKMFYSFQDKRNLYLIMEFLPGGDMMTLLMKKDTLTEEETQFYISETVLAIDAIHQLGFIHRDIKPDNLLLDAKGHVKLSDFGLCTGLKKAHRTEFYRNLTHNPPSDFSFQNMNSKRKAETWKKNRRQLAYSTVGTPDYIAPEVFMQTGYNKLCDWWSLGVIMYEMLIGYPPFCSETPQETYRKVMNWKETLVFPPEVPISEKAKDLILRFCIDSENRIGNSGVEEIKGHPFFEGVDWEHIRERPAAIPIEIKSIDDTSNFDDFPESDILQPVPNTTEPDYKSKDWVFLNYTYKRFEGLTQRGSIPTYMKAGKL

PRKG1 = biological target: T9, PRKG1 (Homo sapiens, UniProt Q13976); assay: KINOMEscan; conditions: read-out: % control activity remaining
T9 construct: purchased Eurofins DiscoverX KINOMEscan
T9 sequence (Q13976 1-671): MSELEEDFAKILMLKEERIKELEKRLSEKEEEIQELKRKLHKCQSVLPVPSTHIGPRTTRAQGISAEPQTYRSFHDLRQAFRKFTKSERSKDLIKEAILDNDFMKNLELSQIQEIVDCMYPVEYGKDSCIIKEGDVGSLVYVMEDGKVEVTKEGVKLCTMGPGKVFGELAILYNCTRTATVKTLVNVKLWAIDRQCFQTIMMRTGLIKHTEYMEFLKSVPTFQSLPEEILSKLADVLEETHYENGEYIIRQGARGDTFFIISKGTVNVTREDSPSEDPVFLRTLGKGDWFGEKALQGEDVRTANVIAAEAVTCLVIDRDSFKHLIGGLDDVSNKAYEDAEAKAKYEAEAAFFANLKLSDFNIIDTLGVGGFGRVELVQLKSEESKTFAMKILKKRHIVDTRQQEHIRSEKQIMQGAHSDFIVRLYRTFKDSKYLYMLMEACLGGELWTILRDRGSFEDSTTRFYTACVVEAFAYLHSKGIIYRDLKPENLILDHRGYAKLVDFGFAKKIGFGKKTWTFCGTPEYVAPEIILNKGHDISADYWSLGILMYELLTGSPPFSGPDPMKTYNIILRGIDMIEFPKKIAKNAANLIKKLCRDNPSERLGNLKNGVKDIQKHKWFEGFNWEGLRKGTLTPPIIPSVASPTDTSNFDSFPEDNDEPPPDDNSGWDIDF

PKN1 = biological target: T10, PKN1 (Homo sapiens, UniProt Q16512); assay: KINOMEscan; conditions: read-out: % control activity remaining
T10 construct: purchased Eurofins DiscoverX KINOMEscan
T10 sequence (Q16512 whole entry): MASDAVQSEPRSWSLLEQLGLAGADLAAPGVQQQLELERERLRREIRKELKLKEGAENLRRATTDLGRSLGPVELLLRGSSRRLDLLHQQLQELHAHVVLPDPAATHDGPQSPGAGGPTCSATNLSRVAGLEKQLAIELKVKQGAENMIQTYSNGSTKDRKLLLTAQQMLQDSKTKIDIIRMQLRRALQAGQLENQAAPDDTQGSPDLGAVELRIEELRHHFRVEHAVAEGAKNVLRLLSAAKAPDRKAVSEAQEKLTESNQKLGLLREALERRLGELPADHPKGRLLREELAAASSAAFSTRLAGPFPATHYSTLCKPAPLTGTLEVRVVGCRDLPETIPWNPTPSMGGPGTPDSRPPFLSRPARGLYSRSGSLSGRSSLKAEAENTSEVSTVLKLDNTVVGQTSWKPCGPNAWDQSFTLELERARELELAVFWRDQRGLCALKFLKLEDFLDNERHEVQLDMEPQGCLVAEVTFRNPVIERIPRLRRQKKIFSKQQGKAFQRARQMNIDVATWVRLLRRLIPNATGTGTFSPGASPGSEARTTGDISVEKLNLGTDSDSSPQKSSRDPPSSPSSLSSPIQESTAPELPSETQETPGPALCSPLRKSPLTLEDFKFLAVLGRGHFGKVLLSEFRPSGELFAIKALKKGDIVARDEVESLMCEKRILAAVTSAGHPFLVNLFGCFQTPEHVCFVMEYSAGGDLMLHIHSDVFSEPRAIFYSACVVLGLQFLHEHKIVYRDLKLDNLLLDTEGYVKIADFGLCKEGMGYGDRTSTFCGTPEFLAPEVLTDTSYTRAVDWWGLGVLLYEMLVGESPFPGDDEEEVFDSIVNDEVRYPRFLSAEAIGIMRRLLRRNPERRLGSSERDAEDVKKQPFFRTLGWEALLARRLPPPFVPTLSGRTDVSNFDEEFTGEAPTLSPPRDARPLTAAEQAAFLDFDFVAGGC

[1] = test system: 455 wild-type and mutant human protein and lipid kinases; assay: KINOMEscan panel summary; conditions: 1 μM

T1 sequence (P00533 with tags, fused parts or gaps DEL746-750 limits assumed): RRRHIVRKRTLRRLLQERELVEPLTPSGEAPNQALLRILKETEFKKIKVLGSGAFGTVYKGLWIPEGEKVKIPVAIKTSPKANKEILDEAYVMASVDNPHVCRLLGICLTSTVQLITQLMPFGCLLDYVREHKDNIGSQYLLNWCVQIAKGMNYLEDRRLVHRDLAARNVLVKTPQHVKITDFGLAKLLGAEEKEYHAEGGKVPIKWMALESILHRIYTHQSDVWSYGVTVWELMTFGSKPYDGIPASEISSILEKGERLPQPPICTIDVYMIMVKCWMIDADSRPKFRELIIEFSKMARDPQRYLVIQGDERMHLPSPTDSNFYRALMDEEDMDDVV

With `CN1CCC(CNc2cc(Cl)nn3c(-c4cc5nc(Nc6ccccc6)[nH]c5cc4F)cnc23)CC1` [compound 31, 6-Chloro-3-(6-fluoro-2-(phenylamino)-1H-benzo[d]imidazol-5-yl)-N-((1-methylpiperidin-4-yl)methyl)imidazo[1,2-b]pyridazin-8-amine] the remaining binding at 1 µM (EGFR(E746-A750del)) was 100%, the remaining binding at 1 µM (YANK1) was 73% and the remaining binding at 1 µM (MET(Y1235D)) was 99%. For the same compound, the remaining binding at 1 µM (GSK3B) was 96%, the remaining binding at 1 µM (DCAMKL2) was 96% and the remaining binding at 1 µM (NEK11) was 92%. The remaining binding at 1 µM (WEE1) was 100%, the remaining binding at 1 µM (NDR2) was 100% and the remaining binding at 1 µM (PRKG1) was 83%. For the same compound, the remaining binding at 1 µM (PKN1) was 91% and the “kinases with >70% inhibition / wild-type and mutant kinases tested” value [1] was 4/455.
In the case of `O=C(CN1CCOCC1)N[C@H]1CC[C@H](Nc2cc(Cl)nn3c(-c4ccc5[nH]ncc5c4)cnc23)CC1` [compound 26], the remaining binding at 1 µM (EGFR(E746-A750del)) is reported as 91%, the remaining binding at 1 µM (YANK1) is reported as 98% and the remaining binding at 1 µM (MET(Y1235D)) is reported as 97%. The remaining binding at 1 µM (GSK3B) was 92%, the remaining binding at 1 µM (DCAMKL2) was 92% and the remaining binding at 1 µM (NEK11) was 100%. The remaining binding at 1 µM (WEE1) was 100%, the remaining binding at 1 µM (NDR2) was 94% and the remaining binding at 1 µM (PRKG1) was 32%. For the same compound, the remaining binding at 1 µM (PKN1) was 71% and the “kinases with >70% inhibition / wild-type and mutant kinases tested” value [1] was 54/455.
With `Clc1cc(NCC2CC2)c2ncc(-c3ccc4[nH]ncc4c3)n2n1` [compound 2, 6-Chloro-N-(cyclopropylmethyl)-3-(1H-indazol-5-yl)imidazo[1,2-b]pyridazin-8-amine] the remaining binding at 1 µM (EGFR(E746-A750del)) was 84%, the remaining binding at 1 µM (YANK1) was 95% and the remaining binding at 1 µM (MET(Y1235D)) was 100%. The remaining binding at 1 µM (GSK3B) was 99%, the remaining binding at 1 µM (DCAMKL2) was 95% and the remaining binding at 1 µM (NEK11) was 88%. It also gave a remaining binding at 1 µM (WEE1) of 100%, a remaining binding at 1 µM (NDR2) of 94% and a remaining binding at 1 µM (PRKG1) of 84%. For the same compound, the remaining binding at 1 µM (PKN1) was 100% and the “kinases with >70% inhibition / wild-type and mutant kinases tested” value [1] was 26/455.
